Results as given in patent US20240277799A1, “Translational Activators, Including Methods of Discovery and Uses Thereof” (The Board of Trustees of the Leland Stanford Junior …, priority 2023, published 2024).

Key:
[1] = system: A459 cells transfected with siRNA targeting RPL11 (siRPL11); assay: global protein synthesis in cells with insufficient global protein synthesis (siRPL11); assay type: cell-based; conditions: FIGS. 4A-4D; for concentrations that increase protein synthesis, fold lower as compared to erythromycin: siRPL11 cells
Description: FIGS. 2A-2D provide data and a schematic of an example of a screening method to discover and/or identify translational activators. In this example, cells with decreased global protein synthesis via small interfering RNA (siRNA) knockdown of an RP are cultured within a multi-well format. Each well of cultured cells is contacted with a compound and then examined for global protein synthesis. Compounds that increased global protein synthesis were considered a putative translational activator for further examination.
To begin, cells are prepared (FIG. 2B). In some embodiments, cells having decreased global protein translation are cultured. It should be understood that any cells can be assessed and it is not required that the cells have decreased global protein translation, but cells with decreased global protein translation may improve identification of translational activators. In some embodiments, the cells are known to have a wild-type p53 sequence, which can reduce cofounding factors. Culturing of cells can be in plates, tubes, flasks, and/or any other appropriate container. High throughput methods can use multi-well plates (e.g., 96-well, 384-well, 1536-well, etc.) or any other means for dividing a cell culture into multiple populations.
In some embodiments, the cells that are cultured are manipulated to decrease global translation. In some embodiments, cells are manipulated by reducing expression of or inhibiting functionality of a ribosomal subunit. Examples of ribosomal subunits that can be targeted include (but are not limited to) RPL5, RPL11, RPS6, and RPS19, each of which are involved in various ribosomopathies. One method to reduce ribosomal subunit expression is knockdown via antisense and/or RNA interference (RNAi) technology. […] The example method within FIG. 2B utilizes reverse transfection in which double-stranded siRNA complexes are preformed and transfected into the cells, which are then cultured.
Upon preparing the cells, the cells are then treated with compounds (FIG. 2C). In some embodiments, cultured cells are contacted with a compound to assess their effect on global protein translation. […] If using a pooling strategy, hits can be further assessed to delineate which compound (or combination of compounds) yield the beneficial effect. Compounds can be assessed at a single concentration, or multiple concentrations. […] For high-throughput assessments, multiple cell cultures (e.g., multiple wells) can be assessed concurrently, each cell culture provided with the same conditions except for the compound (or concentration thereof) utilized to contact the cells of the culture.
After a period of incubating the cell culture with a compound, global protein production can be assessed (FIG. 2D). Any readout for measuring protein synthesis can be utilized. […]

[2] = cellular toxicity, relative total cell count against concentration; conditions: at concentrations that improve protein synthesis; FIG. 5
Description: Specifically, FIG. 5 illustrates relative total cell count is plotted against the concentration provided.

[3] = system: A459 cells transfected with a control siRNA (siCTRL); assay: global protein synthesis in control cells (siCTRL); assay type: cell-based; conditions: siCTRL cells with normal global synthesis; FIGS. 4A-4D
Description: FIGS. 2A-2D provide data and a schematic of an example of a screening method to discover and/or identify translational activators. In this example, cells with decreased global protein synthesis via small interfering RNA (siRNA) knockdown of an RP are cultured within a multi-well format. Each well of cultured cells is contacted with a compound and then examined for global protein synthesis. Compounds that increased global protein synthesis were considered a putative translational activator for further examination. To begin, cells are prepared (FIG. 2B). In some embodiments, cells having decreased global protein translation are cultured. It should be understood that any cells can be assessed and it is not required that the cells have decreased global protein translation, but cells with decreased global protein translation may improve identification of translational activators. […] If using a pooling strategy, hits can be further assessed to delineate which compound (or combination of compounds) yield the beneficial effect. Compounds can be assessed at a single concentration, or multiple concentrations. […] For high-throughput assessments, multiple cell cultures (e.g., multiple wells) can be assessed concurrently, each cell culture provided with the same conditions except for the compound (or concentration thereof) utilized to contact the cells of the culture. […]

| SMILES | concentrations that increase protein synthesis, fold lower as compared to erythromycin [1] [fold] | cellular toxicity (relative total cell count) [2] | ability to increase protein synthesis ([1]; siRPL11 cells having insufficient global protein synthesis) | increase of protein synthesis in control cells [3] |
| --- | --- | --- | --- | --- |
| CC[C@H]1OC(=O)[C@@](C)(F)C(=O)[C@H](C)[C@@H](O[C@@H]2O[C@H](C)C[C@H](N(C)C)[C@H]2O)[C@](C)(OC)C[C@@H](C)C(=O)[C@H](C)[C@H]2N(CCCCn3cc(-c4cccc(N)c4)nn3)C(=O)O[C@]12C [solithromycin] | 10 | little to no toxicity | – | – |
| CC[C@H]1OC(=O)[C@H](C)C(=O)[C@H](C)[C@@H](O[C@@H]2O[C@H](C)C[C@H](N(C)C)[C@H]2O)[C@](C)(OC)C[C@@H](C)C(=O)[C@H](C)[C@H]2N(CCCCn3cnc(-c4cccnc4)c3)C(=O)O[C@]12C [telithromycin] | 10 | – | – | – |
| CC[C@H]1OC(=O)[C@H](C)[C@@H](O[C@H]2C[C@@](C)(OC)[C@@H](O)[C@H](C)O2)[C@H](C)[C@@H](O[C@@H]2O[C@H](C)C[C@H](N(C)C)[C@H]2O)[C@](C)(O)C[C@@H](C)C(=O)[C@H](C)[C@@H](O)[C@]1(C)O [erythromycin] | – | – | increased protein synthesis at high concentrations | – |
| CC[C@H]1OC(=O)[C@H](C)[C@@H](O[C@H]2C[C@@](C)(OC)[C@@H](O)[C@H](C)O2)[C@H](C)[C@@H](O[C@@H]2O[C@H](C)C[C@H](N(C)C)[C@H]2O)[C@](C)(O)C[C@@H](C)CN(C)[C@H](C)[C@@H](O)[C@]1(C)O [azithromycin] | 10 | – | – | increased protein synthesis in control cells |
